Assay results as given in publication PMC10988713 (FEBS Open Bio, 2024).
One block for each compound: values may come before it.

Experiments:
RnMFE1 [1] = biological target: T1, RnMFE1 (Rattus norvegicus, UniProt P07896); assay: stopped-flow NADH formation, kobs vs substrate; type: biochemical; settings: 1 mM NAD+, pH 9.0, 50 mM Tris, 50 mM KCl, room temperature; coupled ECH and HAD reactions of the same enzyme
T1 construct: gene Ehhadh
Excerpt: stopped-flow NADH formation, kobs vs substrate on RnMFE1

HsHAD [2] = biological target: T2, HsHAD (Homo sapiens, UniProt Q16836); assay: stopped-flow tryptophan fluorescence, koff/kon; type: binding
T2 construct: gene HADH; N-terminal His6 tag in pET28a, E. coli BL21(DE3) pLysS, dimer of 35 kDa subunits
T2 sequence (Q16836 13-314): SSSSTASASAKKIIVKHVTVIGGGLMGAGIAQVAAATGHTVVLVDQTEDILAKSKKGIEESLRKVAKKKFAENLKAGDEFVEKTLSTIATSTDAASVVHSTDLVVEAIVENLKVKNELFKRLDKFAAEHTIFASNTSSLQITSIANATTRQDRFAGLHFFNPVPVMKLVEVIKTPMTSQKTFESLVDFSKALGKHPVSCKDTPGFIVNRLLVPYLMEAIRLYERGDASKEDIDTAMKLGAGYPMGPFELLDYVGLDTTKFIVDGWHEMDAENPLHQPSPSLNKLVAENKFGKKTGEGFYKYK
Excerpt: stopped-flow tryptophan fluorescence, koff/kon on HsHAD

RnMFE1 [3] = biological target: T1, RnMFE1; assay: stopped-flow tryptophan fluorescence, koff/kon; type: binding
Excerpt: (§1) stopped-flow tryptophan fluorescence, koff/kon on RnMFE1

RnMFE1 [4] = biological target: T3, RnMFE1 (Rattus norvegicus, UniProt P07896, E123A); assay: stopped-flow tryptophan fluorescence, koff/kon; type: binding
T3 construct: gene Ehhadh
Excerpt: as §1

BCDE [5] = biological target: T4, BCDE (Rattus norvegicus, UniProt P07896); assay: stopped-flow tryptophan fluorescence, koff/kon; type: binding
T4 construct: gene Ehhadh; truncated RnMFE1 from Ala260 (ASGQ) to the C-terminus, without domain A (ECH part); N-terminal His6 tag, E. coli BL21(DE3) pLysS
Excerpt: stopped-flow tryptophan fluorescence, koff/kon on BCDE

RnMFE1 [6] = biological target: T1, RnMFE1; assay: stopped-flow NADH fluorescence, koff/kon; type: binding
Excerpt: (§2) stopped-flow NADH fluorescence, koff/kon on RnMFE1

RnMFE1 [7] = biological target: T3, RnMFE1; assay: stopped-flow NADH fluorescence, koff/kon; type: binding
Excerpt: as §2

BCDE [8] = biological target: T4, BCDE; assay: stopped-flow NADH fluorescence, koff/kon; type: binding
Excerpt: stopped-flow NADH fluorescence, koff/kon on BCDE

HsHAD [9] = biological target: T2, HsHAD; assay: stopped-flow NADH fluorescence, koff/kon; type: binding
Excerpt: stopped-flow NADH fluorescence, koff/kon on HsHAD

T1 sequence (P07896 whole entry): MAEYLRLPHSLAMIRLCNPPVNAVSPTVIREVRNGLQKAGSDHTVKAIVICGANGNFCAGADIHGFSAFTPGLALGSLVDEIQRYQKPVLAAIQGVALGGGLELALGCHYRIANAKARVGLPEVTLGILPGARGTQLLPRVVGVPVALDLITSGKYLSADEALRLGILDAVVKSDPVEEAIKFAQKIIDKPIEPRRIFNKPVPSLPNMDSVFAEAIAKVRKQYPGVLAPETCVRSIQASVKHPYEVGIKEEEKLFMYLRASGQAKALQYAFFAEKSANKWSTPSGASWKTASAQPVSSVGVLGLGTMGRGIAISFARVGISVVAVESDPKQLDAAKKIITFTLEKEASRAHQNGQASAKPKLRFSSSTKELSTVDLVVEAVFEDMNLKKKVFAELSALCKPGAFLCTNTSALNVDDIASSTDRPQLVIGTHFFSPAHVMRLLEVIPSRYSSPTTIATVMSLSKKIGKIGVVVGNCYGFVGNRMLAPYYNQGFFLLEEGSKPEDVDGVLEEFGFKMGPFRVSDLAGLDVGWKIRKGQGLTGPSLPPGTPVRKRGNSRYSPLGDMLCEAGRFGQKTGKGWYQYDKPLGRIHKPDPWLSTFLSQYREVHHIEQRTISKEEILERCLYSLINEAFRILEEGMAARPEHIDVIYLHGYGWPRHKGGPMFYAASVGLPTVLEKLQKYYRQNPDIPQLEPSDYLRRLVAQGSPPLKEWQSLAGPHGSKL
T3 sequence (P07896 whole entry E123A): as the sequence (P07896 whole entry) above, with E123A counted along it
T4 sequence (P07896 260-722): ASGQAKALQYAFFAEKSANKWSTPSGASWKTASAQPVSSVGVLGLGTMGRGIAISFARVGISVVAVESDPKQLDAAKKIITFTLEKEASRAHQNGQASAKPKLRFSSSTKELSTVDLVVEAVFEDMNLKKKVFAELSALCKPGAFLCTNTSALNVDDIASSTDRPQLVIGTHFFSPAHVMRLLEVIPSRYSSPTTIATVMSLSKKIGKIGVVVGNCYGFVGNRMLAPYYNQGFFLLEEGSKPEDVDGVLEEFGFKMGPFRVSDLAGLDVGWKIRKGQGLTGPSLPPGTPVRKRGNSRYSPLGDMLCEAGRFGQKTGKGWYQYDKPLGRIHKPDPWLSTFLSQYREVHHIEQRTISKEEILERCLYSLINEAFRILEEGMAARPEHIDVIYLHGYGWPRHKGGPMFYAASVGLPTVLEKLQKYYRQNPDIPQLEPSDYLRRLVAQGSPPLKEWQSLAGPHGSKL

Kd (RnMFE1 [1]): 1.9 ± 0.1 µM
SMILES: C/C=C/C(=O)SCCNC(=O)CCNC(=O)[C@H](O)C(C)(C)COP(=O)(O)OP(=O)(O)OC[C@H]1O[C@@H](n2cnc3c(N)ncnc32)[C@H](O)[C@@H]1OP(=O)(O)O [2E‐butenoyl‐CoA]

Kd (HsHAD [2]): 6 µM
Kd (RnMFE1 [3]): 7.6 µM
Kd (RnMFE1 [4]): 8 µM
Kd (BCDE [5]): 7.5 µM
SMILES: NC(=O)c1ccc[n+]([C@@H]2O[C@H](COP(=O)(O)OP(=O)(O)OC[C@H]3O[C@@H](n4cnc5c(N)ncnc54)[C@H](O)[C@@H]3O)[C@@H](O)[C@H]2O)c1 [NAD^+]

Kd (RnMFE1 [6]): 5 µM
Kd (RnMFE1 [7]): 7.5 µM
Kd (BCDE [8]): 5.7 µM
Kd (HsHAD [9]): 7 µM
SMILES: NC(=O)C1=CN([C@@H]2O[C@H](COP(=O)(O)OP(=O)(O)OC[C@H]3O[C@@H](n4cnc5c(N)ncnc54)[C@H](O)[C@@H]3O)[C@@H](O)[C@H]2O)C=CC1 [NADH]
